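Dose response: 5 concentrations. Exposure: 48 h. Format: 96-well plates. Endpoint: linear interpolation; highest concentration if not reached. Here, GI50 denotes the concentration required for 50% inhibition of growth.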 Activity calls are given as the source filed them. Rule as the data show it: active = GI50 up to about 1.1 µM and inactive = higher.
How the values were obtained:
Experiment in all cases: NCI anticancer screen, dose series, 48 h
CAKI-1 = tested on: CAKI-1
SF-295 = tested on: SF-295
MCF7 = tested on: MCF7
MOLT-4 = tested on: MOLT-4
OVCAR-4 = tested on: OVCAR-4
SK-MEL-2 = tested on: SK-MEL-2
SNB-19 = tested on: SNB-19
RPMI-8226 = tested on: RPMI-8226
SR = tested on: SR
OVCAR-3 = tested on: OVCAR-3
HCC 2998 = tested on: HCC 2998
U-251 = tested on: U-251
OVCAR-8 = tested on: OVCAR-8
KM12 = tested on: KM12
OVCAR-5 = tested on: OVCAR-5
ACHN = tested on: ACHN
EKVX = tested on: EKVX
NCI/ADR-RES = tested on: NCI/ADR-RES
T47D = tested on: T47D
MDA-MB-231 = tested on: MDA-MB-231
CCRF-CEM = tested on: CCRF-CEM
COLO 205 = tested on: COLO 205
SNB-75 = tested on: SNB-75
HOP-92 = tested on: HOP-92
UO-31 = tested on: UO-31
SF-268 = tested on: SF-268
RXF 393 = tested on: RXF 393
TK-10 = tested on: TK-10
SK-MEL-28 = tested on: SK-MEL-28
NCI-H226 = tested on: NCI-H226
M14 = tested on: M14
HCT-116 = tested on: HCT-116
HCT-15 = tested on: HCT-15
LOX IMVI = tested on: LOX IMVI
K562 = tested on: K562
A549 = tested on: A549
PC-3 = tested on: PC-3
HL-60 = tested on: HL-60
Hs-578T = tested on: Hs-578T
A498 = tested on: A498
NCI-H460 = tested on: NCI-H460
BT-549 = tested on: BT-549
SK-OV-3 = tested on: SK-OV-3
Malme-3M = tested on: Malme-3M
SN12C = tested on: SN12C
NCI-H522 = tested on: NCI-H522
IGROV-1 = tested on: IGROV-1
HT-29 = tested on: HT-29
NCI-H23 = tested on: NCI-H23
MDA-MB-435 = tested on: MDA-MB-435
SF-539 = tested on: SF-539
UACC-257 = tested on: UACC-257
SW-620 = tested on: SW-620
MDA-N = tested on: MDA-N
SK-MEL-5 = tested on: SK-MEL-5
HOP-62 = tested on: HOP-62
UACC-62 = tested on: UACC-62
DU-145 = tested on: DU-145
786-0 = tested on: 786-0

For `CN(CCCNc1ccc2ncn3c4ccccc4c(=O)c1c23)CCCN1C(=O)c2cccc3cc([N+](=O)[O-])cc(c23)C1=O`, the GI50 (CAKI-1) was 29 nM (active), the GI50 (SF-295) was 13.4 nM (active) and the GI50 (MCF7) was 5.41 nM (active). For the same compound, the GI50 (MOLT-4) was 5.65 nM (active), the GI50 (OVCAR-4) was 131 nM (active) and the GI50 (SK-MEL-2) was 1580 nM (inactive). The GI50 (SNB-19) was 40.1 nM (active), the GI50 (RPMI-8226) was 13.2 nM (active) and the GI50 (SR) was 1 nM (active). The GI50 (OVCAR-3) was 1100 nM (active), the GI50 (HCC 2998) was 11.5 nM (active) and the GI50 (U-251) was 9.66 nM (active). The GI50 (OVCAR-8) was 20.5 nM (active), the GI50 (KM12) was 29.2 nM (active) and the GI50 (OVCAR-5) was 1140 nM (inactive). The GI50 (ACHN) was 1.2 nM (active), the GI50 (EKVX) was 56.1 nM (active) and the GI50 (NCI/ADR-RES) was 37.6 nM (active). For the same compound, the GI50 (T47D) was 1180 nM (inactive), the GI50 (MDA-MB-231) was 20.1 nM (active) and the GI50 (CCRF-CEM) was 61.4 nM (active). For the same compound, the GI50 (COLO 205) was 8.15 nM (active), the GI50 (SNB-75) was 18 nM (active) and the GI50 (HOP-92) was 1040 nM (active). For the same compound, the GI50 (UO-31) was 15 nM (active), the GI50 (SF-268) was 24.7 nM (active) and the GI50 (RXF 393) was 26.7 nM (active). The GI50 (TK-10) was 2.21 nM (active), the GI50 (SK-MEL-28) was 1120 nM (inactive) and the GI50 (NCI-H226) was 6.03 nM (active). The GI50 (M14) was 48.1 nM (active), the GI50 (HCT-116) was 1.74 nM (active) and the GI50 (HCT-15) was 15.3 nM. The GI50 (LOX IMVI) was 7.71 nM (active), the GI50 (K562) was 20.1 nM (active) and the GI50 (A549) was 6.28 nM (active). The GI50 (PC-3) was 1140 nM (inactive), the GI50 (HL-60) was 35.8 nM (active) and the GI50 (Hs-578T) was 87.9 nM (active). The GI50 (A498) was 1400 nM (inactive), the GI50 (NCI-H460) was 2.95 nM (active) and the GI50 (BT-549) was 106 nM (active). For the same compound, the GI50 (SK-OV-3) was 1280 nM (inactive), the GI50 (Malme-3M) was 24.4 nM (active) and the GI50 (SN12C) was 12.5 nM (active). The GI50 (NCI-H522) was 7.75 nM (active), the GI50 (IGROV-1) was 9.48 nM (active) and the GI50 (HT-29) was 1.49 nM (active). The GI50 (NCI-H23) was 20.8 nM (active), the GI50 (MDA-MB-435) was 21.9 nM (active) and the GI50 (SF-539) was 5.48 nM (active). For the same compound, the GI50 (UACC-257) was 86.7 nM (active), the GI50 (SW-620) was 3.25 nM (active) and the GI50 (MDA-N) was 32.1 nM (active). The GI50 (SK-MEL-5) was 10 nM (active) and the GI50 (HOP-62) was 47.2 nM (active).
`CC1=C(C(=O)OCCc2ccc([N+](=O)[O-])cc2)C(c2cccc([N+](=O)[O-])c2)C(C(=O)OC(C)C)=C(C)N1` (configuration not stated) was tested, and the GI50 (CAKI-1) was 4680 nM (inactive), the GI50 (SF-295) was 4190 nM (inactive) and the GI50 (MCF7) was 3720 nM (inactive). The GI50 (MOLT-4) was 2630 nM (inactive), the GI50 (OVCAR-4) was > 100000 nM (inactive) and the GI50 (SK-MEL-2) was 7620 nM (inactive). The GI50 (SNB-19) was 12700 nM (inactive), the GI50 (RPMI-8226) was 2880 nM (inactive) and the GI50 (SR) was 3490 nM (inactive). The GI50 (OVCAR-3) was 7590 nM (inactive), the GI50 (HCC 2998) was 75900 nM (inactive) and the GI50 (U-251) was 5690 nM (inactive). For the same compound, the GI50 (OVCAR-8) was 4880 nM (inactive), the GI50 (KM12) was 6050 nM (inactive) and the GI50 (OVCAR-5) was > 100000 nM (inactive). For the same compound, the GI50 (ACHN) was 4820 nM (inactive), the GI50 (EKVX) was 5430 nM (inactive) and the GI50 (NCI/ADR-RES) was 3330 nM (inactive). For the same compound, the GI50 (T47D) was 2940 nM (inactive), the GI50 (CCRF-CEM) was 3570 nM (inactive) and the GI50 (COLO 205) was 5810 nM (inactive). The GI50 (SNB-75) was 5690 nM (inactive), the GI50 (UO-31) was 5430 nM (inactive) and the GI50 (SF-268) was 6400 nM (inactive). The GI50 (RXF 393) was 2910 nM (inactive), the GI50 (TK-10) was 44400 nM (inactive) and the GI50 (UACC-62) was 4480 nM (inactive). The GI50 (DU-145) was > 100000 nM (inactive), the GI50 (SK-MEL-28) was 80000 nM (inactive) and the GI50 (NCI-H226) was 2860 nM (inactive). For the same compound, the GI50 (M14) was 3700 nM (inactive), the GI50 (786-0) was 6490 nM (inactive) and the GI50 (HCT-116) was 3690 nM (inactive). For the same compound, the GI50 (HCT-15) was 5470 nM, the GI50 (LOX IMVI) was 4720 nM (inactive) and the GI50 (K562) was 3520 nM (inactive). The GI50 (A549) was 4990 nM (inactive), the GI50 (PC-3) was 2260 nM (inactive) and the GI50 (HL-60) was 3520 nM (inactive). The GI50 (Hs-578T) was 2860 nM (inactive), the GI50 (NCI-H460) was 3720 nM (inactive) and the GI50 (BT-549) was 2940 nM (inactive). The GI50 (SK-OV-3) was > 100000 nM (inactive), the GI50 (Malme-3M) was 6750 nM (inactive) and the GI50 (SN12C) was 11800 nM (inactive). The GI50 (NCI-H522) was 1870 nM (inactive), the GI50 (IGROV-1) was 9530 nM (inactive) and the GI50 (HT-29) was 4940 nM (inactive). For the same compound, the GI50 (NCI-H23) was 4300 nM (inactive), the GI50 (MDA-MB-435) was 4460 nM (inactive) and the GI50 (SF-539) was > 100000 nM (inactive). The GI50 (UACC-257) was 5890 nM (inactive), the GI50 (SW-620) was 6680 nM (inactive) and the GI50 (MDA-N) was 5110 nM (inactive). For the same compound, the GI50 (SK-MEL-5) was 2620 nM (inactive) and the GI50 (HOP-62) was 5550 nM (inactive).

Reference: ChEMBL document CHEMBL1201862, “PubChem BioAssay data set” (2004)
